Assay results as given in ChEMBL document CHEMBL5052818, “Aminopyrimidine derivatives as ctps1 inhibitors” (2019).

Assay: Inhibition of C-terminal FLAG-His-tagged full length human CTPS1 measured after 60 mins by ADP-Glo assay

Row | SMILES | IC50 [nM]
1 | O=C(Cc1nc(NS(=O)(=O)C2CC2)ncc1F)Nc1ccc(-c2cccnc2)cc1 | > 1000
2 | CC(C)Oc1cncc(-c2ccc(NC(=O)Cc3ccnc(NS(=O)(=O)C4CC4)n3)cc2)n1 | ≤ 100
3 | CCOc1cncc(-c2ccc(NC(=O)C(C)(C)c3ccnc(NS(=O)(=O)C4CC4)n3)c(OC)c2)n1 | ≤ 100
4 | CC(C)Oc1cncc(-c2ccc(NC(=O)Cc3ccnc(NS(=O)(=O)C4CC4)n3)c(F)c2)n1 | ≤ 100
5 | CCC(C(=O)Nc1ccc(-c2cncc(C(F)(F)F)c2)cc1)c1ccnc(NS(=O)(=O)C2CC2)n1 (configuration not stated) | > 100
6 | CCOc1cncc(-c2ccc(NC(=O)C(C)(C)c3ccnc(NS(=O)(=O)C4CCC4)n3)nc2)n1 | > 100
7 | CCOc1cncc(-c2cnc(NC(=O)C(C)(C)c3ccnc(NS(=O)(=O)C4CC4)n3)c(F)c2)n1 | ≤ 100
8 | CCOc1cncc(-c2ccc(NC(=O)C(C)(C)c3ccnc(NS(=O)(=O)C4CC4)n3)c(Cl)c2)n1 | ≤ 100
9 | CCOc1cncc(-c2cc(C)c(NC(=O)C(C)(C)c3ccnc(NS(=O)(=O)C4CC4)n3)cc2F)n1 | > 100
10 | O=C(Cc1ccnc(NS(=O)(=O)C2CC2)n1)Nc1ccc(-c2cncc(C(F)(F)F)n2)cc1 | ≤ 100
11 | CCOc1cncc(-c2ccc(NC(=O)C(CC)(CC)c3ccnc(NS(=O)(=O)C4CC4)n3)cc2)n1 | ≤ 100
12 | CC(C)(C(=O)Nc1ccc(-c2cccc(C(F)(F)F)c2)cc1)c1ccnc(NS(=O)(=O)C2CC2)n1 | > 1000
13 | O=C(Cc1ccnc(NS(=O)(=O)C2CC2)n1)Nc1ccc(-c2cncc(C(F)(F)F)n2)cc1F | ≤ 100
14 | O=C(Cc1ccnc(NS(=O)(=O)C2CC2)n1)Nc1ccc(-c2cncc(OCC(F)(F)F)n2)cc1 | ≤ 100
15 | O=C(Cc1ccnc(NS(=O)(=O)C2CC2)n1)Nc1ccc(-c2cccnc2)cc1 | > 100
16 | COc1cncc(-c2ccc(NC(=O)C(C)(C)c3ccnc(NS(=O)(=O)C4CCC4)n3)cc2)n1 | > 100
17 | COc1cncc(-c2ccc(NC(=O)Cc3ccnc(NS(=O)(=O)C4CC4)n3)cc2)n1 | ≤ 100
18 | CCOc1cncc(-c2cc(C)c(NC(=O)C(C)(C)c3ccnc(NS(=O)(=O)C4CC4)n3)cc2C)n1 | > 100
19 | CCOc1cncc(-c2ccc(NC(=O)C(C)(C)c3ccnc(NS(=O)(=O)C4CCC4)n3)c(C)c2)n1 | > 100
20 | CCOc1cncc(-c2ccc(NC(=O)C(C)(C)c3ccnc(NS(=O)(=O)C4CC4)n3)c(C#N)c2)n1 | ≤ 100
21 | O=C(Cc1ccnc(NS(=O)(=O)C2CC2)n1)Nc1ccc(-c2ccccc2)cc1 | > 1000

Row | SMILES | IC50 [nM]
22 | CCOc1cncc(-c2ccc(NC(=O)C(C)(C)c3ccnc(NS(=O)(=O)C4CC4)n3)c(C)c2C)n1 | > 100
23 | CC(C)Oc1cncc(-c2ccc(NC(=O)C(C)(C)c3ccnc(NS(=O)(=O)C4CC4)n3)cc2)c1 | > 100
24 | O=C(Cc1ccnc(NS(=O)(=O)C2CC2)n1)Nc1ccc(-c2cncc(C(F)(F)F)c2)cc1 | > 100
25 | CCOc1cncc(-c2cc(F)c(NC(=O)C(C)(C)c3ccnc(NS(=O)(=O)C4CC4)n3)c(F)c2)n1 | ≤ 100
26 | Cc1cncc(-c2ccc(NC(=O)C(C)(C)c3ccnc(NS(C)(=O)=O)n3)c(C)c2)n1 | > 1000
27 | CC(C)Oc1cncc(-c2ccc(NC(=O)C(C)(C)c3ccnc(NS(=O)(=O)C4CC4)n3)nc2)n1 | ≤ 100
28 | COc1cncc(-c2ccc(NC(=O)C(C)(C)c3ccnc(NS(=O)(=O)C4CC4)n3)cc2)n1 | ≤ 100
29 | CCOc1cncc(-c2ccc(NC(=O)C(C)(C)c3ccnc(NS(=O)(=O)C4CC4)n3)nc2)n1 | ≤ 100
30 | CC(C)(C(=O)Nc1ccc(-c2cncc(OC3CC3)n2)cn1)c1ccnc(NS(=O)(=O)C2CC2)n1 | ≤ 100
31 | CCOc1cncc(-c2ccc(NC(=O)C(C)(C)c3ccnc(NS(=O)(=O)C4CCC4)n3)cc2)n1 | > 100
32 | CCOc1cncc(-c2ccc(NC(=O)C3(c4ccnc(NS(=O)(=O)C5CC5)n4)CCCC3)cc2)n1 | ≤ 100
33 | Cc1cc(-c2cncc(C(F)(F)F)n2)ccc1NC(=O)C(C)(C)c1ccnc(NS(=O)(=O)C2CC2)n1 | > 100
34 | CCOc1cncc(-c2cc(OC)c(NC(=O)C(C)(C)c3ccnc(NS(=O)(=O)C4CC4)n3)cc2F)n1 | > 100
35 | O=C(Cc1ccnc(NS(=O)(=O)C2CC2)n1)Nc1ccc(-c2cncc(OCC(F)(F)F)c2)cc1 | > 100
36 | CC(C)(C(=O)Nc1ccc(-c2cncc(C(F)(F)F)n2)cn1)c1ccnc(NS(=O)(=O)C2CC2)n1 | ≤ 100
37 | CCOc1cncc(-c2ccc(NC(=O)Cc3ccnc(NS(=O)(=O)C4CC4)n3)cc2)n1 | ≤ 100
38 | CCOc1cncc(-c2ccc(NC(=O)C(C)(C)c3ccnc(NS(=O)(=O)C4CC4)n3)c(OC(F)(F)F)c2)n1 | ≤ 100
39 | CCC(C(=O)Nc1ccc(-c2cncc(Cl)c2)cc1)c1ccnc(NS(=O)(=O)C2CC2)n1 (configuration not stated) | > 100
40 | CCC(C(=O)Nc1ccc(-c2cnccn2)cc1F)c1ccnc(NS(=O)(=O)C2CC2)n1 (configuration not stated) | > 100
41 | CCOc1cncc(-c2ccc(NC(=O)C(C)(C)c3ccnc(NS(=O)(=O)C4CC4)n3)nc2)c1 | > 100
42 | CCOc1cncc(-c2cc(F)c(NC(=O)C(C)(C)c3ccnc(NS(=O)(=O)C4CC4)n3)cc2C)n1 | > 100

Next, values leading:

Row | IC50 [nM] | SMILES
43 | > 1000 | CC(C)(C(=O)Nc1ccc(-c2cccc(Cl)c2)cc1)c1ccnc(NS(=O)(=O)C2CC2)n1
44 | ≤ 100 | CC(C)(C(=O)Nc1ccc(-c2cncc(C(F)(F)F)n2)cc1F)c1ccnc(NS(=O)(=O)C2CC2)n1
45 | > 100 | CC(C)(C(=O)Nc1ccc(-c2cncc(C#N)c2)cc1)c1ccnc(NS(=O)(=O)C2CC2)n1
46 | > 1000 | CC(C)(C(=O)Nc1ccc(-c2cccnc2)cc1)c1ccnc(NS(=O)(=O)C2CC2)n1
47 | > 100 | CC(C)(C(=O)Nc1ccc(-c2cncc(F)c2)cc1)c1ccnc(NS(=O)(=O)C2CC2)n1
48 | > 100 | CC(C)Oc1cncc(-c2ccc(NC(=O)C(C)(C)c3ccnc(NS(=O)(=O)C4CC4)n3)c(F)c2)c1
49 | > 100 | CC(C)(C(=O)Nc1ccc(-c2cncc(C(F)(F)F)c2)cc1)c1ccnc(NS(=O)(=O)C2CC2)n1
50 | > 100 | CC(C)Oc1cncc(-c2ccc(NC(=O)C(C)(C)c3ccnc(NS(=O)(=O)C4CCC4)n3)c(F)c2)n1
51 | > 1000 | CC(C)(C(=O)Nc1ccc(-c2cccnc2)cn1)c1ccnc(NS(=O)(=O)C2CC2)n1
52 | ≤ 100 | CC(C)Oc1cncc(-c2ccc(NC(=O)C(C)(C)c3ccnc(NS(=O)(=O)C4CC4)n3)c(F)c2)n1
53 | > 1000 | CC(C)(C(=O)Nc1ccc(-c2cccc(C#N)c2)cc1)c1ccnc(NS(=O)(=O)C2CC2)n1
54 | ≤ 100 | CCOc1cncc(-c2ccc(NC(=O)C(C)(C)c3ccnc(NS(=O)(=O)C4CC4)n3)c(F)c2)n1
55 | > 1000 | CC(C)(C(=O)Nc1ccc(-c2cncnc2)cc1)c1ccnc(NS(=O)(=O)C2CC2)n1
56 | > 100 | Cc1cncc(-c2ccc(NC(=O)C(C)(C)c3ccnc(NS(=O)(=O)C4CC4)n3)cc2)c1
57 | > 100 | CC(C)(C(=O)Nc1ccc(-c2cncc(Cl)c2)cc1)c1ccnc(NS(=O)(=O)C2CC2)n1
58 | > 100 | COc1cncc(-c2ccc(NC(=O)C(C)(C)c3ccnc(NS(=O)(=O)C4CC4)n3)cc2)c1
59 | > 100 | CCOc1cncc(-c2ccc(NC(=O)C(C)(C)c3ccnc(NS(=O)(=O)C4CC4)n3)cc2)c1
60 | > 1000 | CC(C)(C(=O)Nc1ccc(-c2cnccn2)cc1F)c1ccnc(NS(=O)(=O)C2CC2)n1
61 | ≤ 100 | CC(C)(C(=O)Nc1ccc(-c2cncc(OC(F)F)c2)cc1)c1ccnc(NS(=O)(=O)C2CC2)n1
62 | > 1000 | CC(C)(C(=O)Nc1ccc(-c2cccnc2)cc1F)c1ccnc(NS(=O)(=O)C2CC2)n1
